Test results published in patent US20230393122A1 (priority 2022, published 2023).
Read-outs that look alike come from different tables or passages of the source.

How the values were obtained:
[1] = tested on: SARS-CoV-2 WT; test: Viral load reduction assay in EPSC-derived eSTB cells (qRT-PCR of supernatant viral copies); type: cell-based; conditions: for IC50: read-out: IC50 for SARS-CoV-2 in eSTBs
[2] = tested on: SARS-CoV-2; conditions: Vero E6 cells; read-out: IC50 against SARS-CoV-2 in Vero E6 cells; cited from earlier work
[3] = tested on: MERS-CoV; type: cell-based; conditions: 48 h.p.i., efficiency comparable to that in Vero E6 cells
[4] = tested on: SARS-CoV-2 infected eSTBs; type: cell-based, human
[5] = tested on: SARS-CoV-2; conditions: cited from earlier work
[6] = tested on: SARS-CoV-2 WT; test: Viral load reduction assay in naïve-eSTB cells; type: cell-based; conditions: compared with EPSC-eSTBs

## CC(C)C[C@H](NC(=O)OCc1ccccc1)C(=O)N[C@@H](CC1CCNC1=O)C(O)S(=O)(=O)O (some centres unmarked) [GC376]
[1]
  IC50: 31.2 ± 5.6 nM
[2]
  IC50: 700 nM

## CC(C)C[C@H](NC(=O)OCc1ccccc1)C(=O)N[C@@H](C[C@@H]1CCNC1=O)C(O)S(=O)(=O)[O-].[Na+] (some centres unmarked) [GC376]
[3]
  MERS-CoV replication in eSTBs: effectively block
[4]
  eSTB development and differentiation along PI-TB to PI-STB pseudotime trajectory: partially rescued
[1]; EPSC-derived eSTB cells
  Viral copy in the supernatant, SARS-CoV-2 WT (FIG. 17B): dose-dependent inhibition
[5]
  Survival of mice with a fatal SARS-CoV-2 infection: increases survival
[6]
  IC50 against SARS-CoV-2 in naïve-eSTBs: similarly low

## CCC(CC)COC(=O)[C@H](C)N[P@](=O)(OC[C@H]1O[C@@](C#N)(c2ccc3c(N)ncnn23)[C@H](O)[C@@H]1O)Oc1ccccc1 [remdesivir]
[1]; Severe acute respiratory syndrome coronavirus 2, 48 h
  IC50: 3.2 ± 0.1 nM
